Measured values reported in the CheMixHub ionic liquid set.
± gives the uncertainty stated by the source.

Assay: xn = mol fraction of the nth substance listed

Cn1cc[nH+]c1.[Cl-] + OCC(O)CO
100 kPa, x1 = 0.333
Conditions	viscosity [mPa·s]
298.15 K	126.1 ± 2.8
313.15 K	70.3 ± 0.8
333.15 K	35 ± 0.4

CCCCCC[N+](CC)(CC)CC.O=S(=O)([N-]S(=O)(=O)C(F)(F)F)C(F)(F)F + CC(C)O
100 kPa
Conditions	viscosity [mPa·s]
293.15 K, x2 = 0.096	160 ± 16
298.15 K, x2 = 0.2045	95.8 ± 9.7
298.15 K, x2 = 0.3101	68.4 ± 6.9
298.15 K, x2 = 0.4987	35.9 ± 3.6
303.15 K, x2 = 0.3101	61.4 ± 6.2
308.15 K, x2 = 0.4056	35.1 ± 3.5
308.15 K, x2 = 0.4987	25.5 ± 2.6
308.15 K, x2 = 0.5916	18 ± 1.8
308.15 K, x2 = 0.8015	5.65 ± 0.57
308.15 K, x2 = 0.9193	2.98 ± 0.3
313.15 K, x2 = 0.096	69.9 ± 7
313.15 K, x2 = 0.5916	16 ± 1.6

CCCC[n+]1cccc(C)c1.O=S(=O)([N-]S(=O)(=O)C(F)(F)F)C(F)(F)F + CO
298.15 K, 101.3 kPa
Conditions	electrical conductivity [S/m]
x2 = 0.1004	0.338 ± 0.007
x2 = 0.7793	1.68 ± 0.034
x2 = 0.9417	2.04 ± 0.04
x2 = 0.9589	1.83 ± 0.037

CN(C)C=O + CCCC[n+]1ccn(C)c1.[Cl-]
Conditions	viscosity [mPa·s]
288.15 K, 101 kPa, x1 = 1	0.94 ± 0.11

CCCC[n+]1ccn(C)c1.O=S(=O)([N-]S(=O)(=O)C(F)(F)F)C(F)(F)F + CCCO
298 K, 100 kPa
Conditions	electrical conductivity [S/m]	viscosity [mPa·s]
x1 = 0.02	0.137 ± 0.0014	–
x1 = 0.05	–	2.742 ± 0.016
x1 = 0.06	0.348 ± 0.0035	–
x1 = 0.07	0.3949 ± 0.0039	–
x1 = 0.1	0.5104 ± 0.0051	3.685 ± 0.024
x1 = 0.1996	–	5.689 ± 0.047
x1 = 0.2	0.7444 ± 0.0074	–
x1 = 0.3	0.8144 ± 0.0081	–
x1 = 0.3005	–	8.179 ± 0.084
x1 = 0.3996	–	11.32 ± 0.14
x1 = 0.4	0.804 ± 0.08	–
x1 = 0.4995	–	15.01 ± 0.22
x1 = 0.5	0.7509 ± 0.0075	–
x1 = 0.5478	–	17.08 ± 0.27
x1 = 0.6	0.686 ± 0.0069	–
x1 = 0.6957	–	24.54 ± 0.47
x1 = 0.7	0.6239 ± 0.0062	–
x1 = 0.8	0.5324 ± 0.0053	–
x1 = 0.8024	–	32.15 ± 0.69
x1 = 0.9	0.461 ± 0.046	–
x1 = 0.9018	–	40.15 ± 0.95
x1 = 1	–	49.7 ± 1.3

CCCC[n+]1cccc(C)c1.O=S(=O)([N-]S(=O)(=O)C(F)(F)F)C(F)(F)F + CC(C)O
Conditions	electrical conductivity [S/m]
298.15 K, 101.3 kPa, x2 = 0.3381	0.642 ± 0.013

CCCC[P+](C)(CCCC)CCCC.COS(=O)(=O)[O-] + O
Conditions	viscosity [mPa·s]
298.15 K, 100 kPa, x1 = 0.004192	1.135 ± 0.024

CCCC[n+]1ccn(C)c1.F[P-](F)(F)(F)(F)F + ClC(Cl)Cl
298.15 K, 101 kPa
Conditions	electrical conductivity [S/m]	viscosity [mPa·s]
x2 = 0	0.157 ± 0.019	260
x2 = 0.0857	0.199 ± 0.024	200
x2 = 0.1741	0.253 ± 0.03	144 ± 63
x2 = 0.2614	0.319 ± 0.038	103 ± 31
x2 = 0.3625	0.411 ± 0.049	68.4 ± 9.1
x2 = 0.4608	0.519 ± 0.062	43 ± 4.3
x2 = 0.5633	0.644 ± 0.077	25 ± 2.5
x2 = 0.6683	0.726 ± 0.087	13.1 ± 1.4
x2 = 0.7326	0.729 ± 0.087	10 ± 1.1

CCCCCCO + CCCCCCCC[n+]1ccc2ccccc2c1.O=S(=O)([N-]S(=O)(=O)C(F)(F)F)C(F)(F)F
Conditions	viscosity [mPa·s]
328.15 K, 101 kPa, x1 = 1	1.97 ± 0.02
